Where two headings read alike, the source gives them in different places.
Key:
Format in all cases: cell-based
SARS-CoV-2 PsV D614G [1] = settings: read-out: IC50, inhibition of PsV entry
[2] = system: SARS-CoV-2 PsV B.1.1.529 (Omicron); experiment: microbe, parasite or virus in culture; settings: Omicron variant, Vero-TMPRSS2 cells
SARS-CoV-2 PsV D614G [3] = settings: read-out: IC50, inhibition of PsV entry; remark: listed apart in the source

With `CN(C)C(=O)COC(=O)Cc1ccc(OC(=O)c2ccc(NC(=N)N)cc2)cc1` [Camostat] the IC50 (SARS-CoV-2 PsV D614G [1]) was > 300000 nM, the “inhibition of PsV entry (in words)” value [2] was “unable to inhibit” and the IC50 (SARS-CoV-2 PsV D614G [3]) was 199 nM.
